# Columns and labels:
# [1] = molecular target: Human α2δ-1 subunit of Cav2.2 calcium channel (Homo sapiens, UniProt P54289); assay: Binding assay to human α2δ-1 subunit of Cav2.2 calcium channel ([3H]-Gabapentin); details: human α2δ-1 enriched membranes, [3H]-Gabapentin 15 nM; read-out: Ki(nM) alpha2delta Hum
# Description: Binding Assay to Human α2δ-1 Subunit of Cav2.2 Calcium Channel
# Human α2δ-1 enriched membranes (2.5 μg) were incubated with 15 nM of radiolabeled [3H]-Gabapentin in assay buffer containing Hepes-KOH 10 mM, pH 7.4. NSB (non-specific binding) was measured by adding 10 μM pregabalin. The binding of the test compound was measured at either one concentration (% inhibition at 1 or 10 μM) or five different concentrations to determine affinity values (Ki). After 60 min incubation at 27° C., binding reaction was terminated by filtering through Multiscreen GF/C (Millipore) presoaked in 0.5% polyethyleneimine in Vacuum Manifold Station, followed by 3 washes with ice-cold filtration buffer containing 50 mM Tris-HCl, pH 7.4. Filter plates were dried at 60° C. for 1 hour and 30 μl of scintillation cocktail were added to each well before radioactivity reading. Readings were performed in a Trilux 1460 Microbeta radioactive counter (Perkin Elmer).
# [2] = molecular target: Human norepinephrine transporter (NET) (Homo sapiens, UniProt P23975); assay: Binding assay to human norepinephrine transporter (NET) ([3H]-Nisoxetin); details: human NET enriched membranes, [3H]-Nisoxetin 5 nM; read-out: Ki(nM) NET Hum
# Description: Binding Assay to Human Norepinephrine Transporter (NET)
# Human norepinephrine transporter (NET) enriched membranes (5 μg) were incubated with 5 nM of radiolabeled [3H]-Nisoxetin in assay buffer containing 50 mM Tris-HCl, 120 mM NaCl, 5 mM KCl, pH 7.4. NSB (non specific binding) was measured by adding 10 μM of desipramine. The binding of the test compound was measured at either one concentration (% inhibition at 1 or 10 μM) or five different concentrations to determine affinity values (Ki). After 60 min incubation at 4° C., binding reaction was terminated by filtering through Multiscreen GF/C (Millipore) presoaked in 0.5% polyethyleneimine in Vacuum Manifold Station, followed by 3 washes with ice-cold filtration buffer containing 50 mM Tris-HCl, 0.9% NaCl, pH 7.4. Filter plates were dried at 60° C. for 1 hour and 30 μl of scintillation cocktail were added to each well before radioactivity reading. Readings were performed in a Trilux 1450 Microbeta radioactive counter (Perkin Elmer).
# Human α2δ-1 subunit of Cav2.2 calcium channel, sequence (P54289 25-1103): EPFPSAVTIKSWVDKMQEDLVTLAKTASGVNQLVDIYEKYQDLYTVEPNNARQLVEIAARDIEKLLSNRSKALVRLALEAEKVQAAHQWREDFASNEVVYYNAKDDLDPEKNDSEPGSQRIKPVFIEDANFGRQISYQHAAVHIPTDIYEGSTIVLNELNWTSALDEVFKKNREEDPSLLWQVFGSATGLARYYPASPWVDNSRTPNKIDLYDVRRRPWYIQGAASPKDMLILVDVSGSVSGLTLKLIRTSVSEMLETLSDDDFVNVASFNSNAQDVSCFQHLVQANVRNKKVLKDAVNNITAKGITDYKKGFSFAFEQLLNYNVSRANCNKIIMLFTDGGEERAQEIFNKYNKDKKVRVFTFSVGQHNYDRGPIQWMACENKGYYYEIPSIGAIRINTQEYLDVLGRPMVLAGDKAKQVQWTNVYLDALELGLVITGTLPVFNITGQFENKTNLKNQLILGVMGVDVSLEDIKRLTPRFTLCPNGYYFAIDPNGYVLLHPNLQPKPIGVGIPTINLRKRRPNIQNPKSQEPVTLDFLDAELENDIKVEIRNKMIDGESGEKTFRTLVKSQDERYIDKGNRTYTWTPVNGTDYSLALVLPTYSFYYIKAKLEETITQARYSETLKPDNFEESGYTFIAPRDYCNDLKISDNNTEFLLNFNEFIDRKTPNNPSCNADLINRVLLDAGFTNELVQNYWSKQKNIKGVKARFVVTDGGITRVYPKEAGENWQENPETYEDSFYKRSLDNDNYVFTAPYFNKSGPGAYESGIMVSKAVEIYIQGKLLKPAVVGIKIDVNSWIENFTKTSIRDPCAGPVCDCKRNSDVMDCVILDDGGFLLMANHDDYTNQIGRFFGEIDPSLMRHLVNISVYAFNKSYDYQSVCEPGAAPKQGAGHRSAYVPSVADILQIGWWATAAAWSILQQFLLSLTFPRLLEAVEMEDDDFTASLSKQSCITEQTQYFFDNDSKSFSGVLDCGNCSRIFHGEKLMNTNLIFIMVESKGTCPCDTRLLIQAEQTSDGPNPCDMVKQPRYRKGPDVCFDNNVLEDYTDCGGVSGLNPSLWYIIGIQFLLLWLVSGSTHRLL
# Human norepinephrine transporter (NET), sequence (P23975 whole entry): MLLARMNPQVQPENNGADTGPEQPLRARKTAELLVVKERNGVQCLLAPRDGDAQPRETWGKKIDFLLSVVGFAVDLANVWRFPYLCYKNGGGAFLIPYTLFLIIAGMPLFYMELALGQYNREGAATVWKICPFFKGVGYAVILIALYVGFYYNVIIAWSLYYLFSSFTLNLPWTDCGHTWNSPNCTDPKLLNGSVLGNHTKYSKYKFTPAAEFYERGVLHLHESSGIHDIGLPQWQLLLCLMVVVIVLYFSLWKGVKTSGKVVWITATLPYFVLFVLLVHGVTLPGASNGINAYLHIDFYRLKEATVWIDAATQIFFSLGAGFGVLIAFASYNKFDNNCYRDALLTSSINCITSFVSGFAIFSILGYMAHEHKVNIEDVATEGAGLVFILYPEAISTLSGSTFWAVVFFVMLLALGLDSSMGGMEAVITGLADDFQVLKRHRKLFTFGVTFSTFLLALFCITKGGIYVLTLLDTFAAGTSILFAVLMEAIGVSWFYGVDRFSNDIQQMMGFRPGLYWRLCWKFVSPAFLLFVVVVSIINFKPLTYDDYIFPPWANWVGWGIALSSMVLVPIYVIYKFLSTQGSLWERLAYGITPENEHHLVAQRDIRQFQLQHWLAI
Ki [1] [nM],Ki [2] [nM],SMILES
< 100,< 100,"CNCC[C@H](Oc1cnc(CN2CCN(C)c3ncccc3C2=O)c(F)c1)c1ccccc1 [Example 1, (S)-4-((3-Fluoro-5-(3-(methylamino)-1-phenylpropoxy)pyridin-2-yl)methyl)-1-methyl-1,2,3,4-tetrahydro-5H-pyrido[2,3-e][1,4]diazepin-5-one]"
100 to 500,< 100,"CNCC[C@H](Oc1cnc(CN2CCN(C)c3ncc(F)cc3C2=O)c(F)c1)c1cccc(F)c1 [Example 2, (S)-7-fluoro-4-((3-fluoro-5-(1-(3-fluorophenyl)-3-(methylamino)propoxy)pyridin-2-yl)methyl)-1-methyl-1,2,3,4-tetrahydro-5H-pyrido[2,3-e][1,4]diazepin-5-one]"
< 100,< 100,"CNCC[C@H](Oc1cnc(CN2CCN(C)c3nc(N)ccc3C2=O)c(F)c1)c1cccc(F)c1 [Example 3, (S)-8-amino-4-((3-fluoro-5-(1-(3-fluorophenyl)-3-(methylamino)propoxy)pyridin-2-yl)methyl)-1-methyl-1,2,3,4-tetrahydro-5H-pyrido[2,3-e][1,4]diazepin-5-one]"
< 100,< 100,"CCNc1ccc2c(n1)N(C)CCN(Cc1ncc(O[C@@H](CCNC)c3cccc(F)c3)cc1F)C2=O [Example 4, (S)-8-(ethylamino)-4-((3-fluoro-5-(1-(3-fluorophenyl)-3-(methylamino)propoxy)pyridin-2-yl)methyl)-1-methyl-1,2,3,4-tetrahydro-5H-pyrido[2,3-e][1,4]diazepin-5-one]"
< 100,< 100,"CNCC[C@H](Oc1cnc(CN2CCN(C)c3ncccc3C2=O)c(Cl)c1)c1cccc(F)c1 [Example 5, (S)-4-((3-chloro-5-(1-(3-fluorophenyl)-3-(methylamino)propoxy)pyridin-2-yl)methyl)-1-methyl-1,2,3,4-tetrahydro-5H-pyrido[2,3-e][1,4]diazapin-5-one]"
< 100,< 100,"CNCC[C@H](Oc1cnc(CN2CCN(C)c3cnc(OC)cc3C2=O)c(F)c1)c1cccc(F)c1 [Example 6, (S)-4-((3-fluoro-5-(1-(3-fluorophenyl)-3-(methylamino)propoxy)pyridin-2-yl)methyl)-7-methoxy-1-methyl-1,2,3,4-tetrahydro-5H-pyrido[3,4-e][1,4]diazepin-5-one]"
100 to 500,< 100,"CNCC[C@H](Oc1cnc(CN2CCN(C)c3ncccc3C2=O)c(F)c1)c1cccc(F)c1 [Example 7, (S)-4-((3-fluoro-5-(1-(3-fluorophenyl)-3-(methylamino)propoxy)pyridin-2-yl)methyl)-1-methyl-1,2,3,4-tetrahydro-5H-pyrido[2,3-e][1,4]diazepin-5-one]"
100 to 500,< 100,"CNCC[C@H](Oc1cnc(CN2CCN(C)c3ncccc3C2=O)c(F)c1)c1cccs1 [Example 8, (S)-4-((3-Fluoro-5-(3-(methylamino)-1-(thiophen-2-yl)propoxy)pyridin-2-yl)methyl)-1-methyl-1,2,3,4-tetrahydro-5H-pyrido[2,3-e][1,4]diazepin-5-one]"
